Laboratory results taken from US9890129B2, “Aminoalkylbenzothiazepine derivatives and uses thereof” (CJ Healthcare Corporation, priority 2014, dated 2018).

System: SD rats
Assay: Feces excretion time and evaluation of efficiency (barium-containing diet, oral administration)
Format: in vivo, rat
Settings: for Feces excretion time (min) @ volume (mg/kg): observed 10 hours
Method: Eight-week-old SD rats were purchased and allowed to adapt to breeding conditions under 12-hour illumination at 24° C. for 7 days. The rats were made to fast for 16 hours before the experimental day, and orally administered on the experimental day with a vehicle (0.5% methylcellulose) and a test material, […], respectively. Thirty minutes after the administration, the rats fed with 3 g of a barium-containing diet were placed into a metabolism cage and observed to record the time required for the barium to be excreted as feces in each rat after being passed through the intestines for 10 hours. Additionally, the percentage of rats that excreted barium-containing feces within 10 hours were calculated, and the results are shown in Table 1 below.

Row | SMILES | Percentage of subjects excreting feces within 10 hours (%) (0.1 mg/kg) | Feces excretion time (min) @ volume (mg/kg) (0.1 mg/kg) | Percentage of subjects excreting feces within 10 hours (%) (1 mg/kg) | Feces excretion time (min) @ volume (mg/kg) (1 mg/kg) | Percentage of subjects excreting feces within 10 hours (%) (5 mg/kg) | Feces excretion time (min) @ volume (mg/kg) (5 mg/kg)
1 | CCCCC1(CCCC)CN(c2ccc(O)cc2)c2cc(SC)c(CNCC(=O)O)cc2S(=O)(=O)C1 [Example 20, 2-(((3,3-dibutyl-5-(4-hydroxyphenyl)-7-methylthio-1,1-dioxido-2,3,4,5-tetrahydrobenzo[b][1,4]thiazepine-8-yl)methyl)amino)acetic acid] | A @ 0.1 (A: 76-100%) | C @ 0.1 (C: 501-590 min) | A @ 1 (A: 76-100%) | B @ 1 (B: 401-500 min) | A @ 5 (A: 76-100%) | A @ 5 (A: 301-400 min)
2 | CCCCC1(CCCC)CN(c2ccc(OC)cc2)c2cc(SC)c(CNCC(=O)O)cc2S(=O)(=O)C1 [Example 19, 2-(((3,3-dibutyl-5-(4-methoxyphenyl)-7-methylthio-1,1-dioxido-2,3,4,5-tetrahydrobenzo[b][1,4]thiazepine-8-yl)methyl)amino)acetic acid] | – | – | A @ 1 (A: 76-100%) | C @ 1 (C: 501-590 min) | A @ 5 (A: 76-100%) | B @ 5 (B: 401-500 min)
3 | CCCCC1(CCCC)CN(c2ccccc2)c2cc(SC)c(CNCC(=O)O)cc2S(=O)(=O)C1 [Example 1, 2-(((3,3-dibutyl-7-methylthio-1,1-dioxido-5-phenyl-2,3,4,5-tetrahydrobenzo[b][1,4]thiazepine-8-yl)methyl)amino)acetic acid] | B @ 0.1 (B: 50-75%) | C @ 0.1 (C: 501-590 min) | A @ 1 (A: 76-100%) | B @ 1 (B: 401-500 min) | A @ 5 (A: 76-100%) | A @ 5 (A: 301-400 min)
4 | CCCCC1(CCCC)CN(c2ccccc2)c2cc(SC)c(CNC(=O)CS(=O)(=O)O)cc2S(=O)(=O)C1 [Example 18, 2-(((3,3-dibutyl-7-methylthio-1,1-dioxido-5-phenyl-2,3,4,5-tetrahydrobenzo[b][1,4]thiazepine-8-yl)methyl)amino)-2-oxoethanesulfonic acid] | – | – | B @ 1 (B: 50-75%) | B @ 1 (B: 401-500 min) | – | –
5 | CCCCC1(CCCC)CN(c2ccc(F)cc2)c2cc(SC)c(CNCC(=O)O)cc2S(=O)(=O)C1 [Example 22, 2-(((3,3-dibutyl-5-(4-fluorophenyl)-7-methylthio-1,1-dioxido-2,3,4,5-tetrahydrobenzo[b][1,4]thiazepine-8-yl)methyl)amino)acetic acid] | A @ 0.1 (A: 76-100%) | B @ 0.1 (B: 401-500 min) | A @ 1 (A: 76-100%) | B @ 1 (B: 401-500 min) | A @ 5 (A: 76-100%) | A @ 5 (A: 301-400 min)
6 | CCCCC1(CCCC)CN(c2ccc(OC)c(F)c2)c2cc(SC)c(CNCC(=O)O)cc2S(=O)(=O)C1 [Example 24, 2-(((3,3-dibutyl-5-(3-fluoro-4-methoxyphenyl)-7-methylthio-1,1-dioxido-2,3,4,5-tetrahydrobenzo[b][1,4]thiazepine-8-yl)methyl)amino)acetic acid] | – | – | A @ 1 (A: 76-100%) | C @ 1 (C: 501-590 min) | A @ 5 (A: 76-100%) | A @ 5 (A: 301-400 min)
